# Measured values taken from patent publication US9499484B2, “Indole, indoline derivatives, compositions comprising them and uses thereof” (priority 2012, dated 2016).
# Structures can show the parent of a compound that is named as a salt. Where two headings read alike, the source gives them in different places.
# Legend:
# AChE = target: T1, AChE (UniProt P23795); type: biochemical, human or bovine erythrocytes
# T1 sequence (P23795 1-613): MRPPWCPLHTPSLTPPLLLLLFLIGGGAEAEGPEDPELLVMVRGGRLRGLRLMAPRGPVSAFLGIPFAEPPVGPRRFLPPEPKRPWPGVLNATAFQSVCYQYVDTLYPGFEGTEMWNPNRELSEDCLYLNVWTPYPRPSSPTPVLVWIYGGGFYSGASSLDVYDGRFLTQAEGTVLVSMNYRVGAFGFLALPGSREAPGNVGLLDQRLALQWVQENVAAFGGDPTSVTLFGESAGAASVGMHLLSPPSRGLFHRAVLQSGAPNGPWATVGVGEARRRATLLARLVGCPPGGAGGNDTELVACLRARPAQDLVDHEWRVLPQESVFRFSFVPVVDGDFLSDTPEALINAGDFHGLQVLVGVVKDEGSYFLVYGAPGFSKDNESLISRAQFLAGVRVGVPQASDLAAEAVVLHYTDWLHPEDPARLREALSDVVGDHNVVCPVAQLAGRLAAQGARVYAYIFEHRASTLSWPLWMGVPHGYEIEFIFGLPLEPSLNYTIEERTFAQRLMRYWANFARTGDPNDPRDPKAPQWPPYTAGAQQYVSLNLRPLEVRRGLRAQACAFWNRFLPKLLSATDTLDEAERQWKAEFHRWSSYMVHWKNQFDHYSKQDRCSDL
# Procedure: (§1) B. Measurement of Acetylcholinesterase (AChE) and Butylcholinesterase (BuChE) Inhibition In Vitro
# (§2) The enzyme was incubated at 37° C. with 6-10 concentrations of the compounds tested and samples were collected at 15, 30, 60 and 120 min Aliquots were transferred to an Elisa multiscan microplate reader (Labsystems) at 15-60 sec time intervals for the determination of residual AChE activity, with Ascent PC software. […] The % inhibition of AChE by each concentration was calculated by comparison with the activity of the enzyme in the absence of drug. […] BuChE-inhibitory activity was determined as described above using BuChE (Sigma Israel) with butylthiocholine iodide (BuTh) 0.075M as a substrate.
# [1] = Radical scavenging, glucose oxidase/luminol luminescence; type: biochemical; conditions: concentration reducing luminescence/radical by 50%; mean ± SD, three independent experiments
# Procedure: A. Measurement of Radical Scavenging
# A mixture comprising glucose oxidase (GO), luminol, sodium selenite [IV] ([…]) and cobalt [II] (Co^+2) all in Hank's Balance Salt Solution (HBSS) was used (Ginsburg et al, 2004). The production of H2O2 produces a burst of luminescence within 30-60 sec, which lasts for 7-10 min. The luminescence involves oxidation of SEL+5 to it SEL+6 and also the generation of oxidants, which are catalyzed by Co^+2. This method mimics infection and inflammation conditions in which there is an accumulation of several oxidant species. This method provides a source of several radicals. Reduction in luminescence by the compounds is due to their ability to sequester radicals and was measured after addition of several concentrations of each compound. The concentration of each compound that reduced the luminescence by 50% was calculated.
# BuChE = target: T2, BuChE (UniProt P81908); type: biochemical, human or equine serum
# T2 construct: 120 min incubation; BuChE IC50
# Procedure: as §1, §2
# NO, RAW 264.7 cells = assay: NO reduction in LPS-stimulated RAW 264.7 macrophages; type: cell-based, mouse
# [2] = test system: ChE (AChE, BuChE) in plasma, muscle, spleen, brain; conditions: after ip and or oral administration in mice
# Procedure: E. Acetylcholinesterase (AChE) and Butylcholinesterase (BuChE) Inhibition Ex Vivo
# Compounds of the invention or saline were administrated by intraperitoneal (ip) injection or gavage to groups of 6-7 male ICR or Balb C mice (5-6 weeks of age). The mice were sacrificed 15, 30, 60 or 120 min after drug administration and the brain (minus cerebellum), spleen, and muscle were rapidly removed, weighed and put on ice. Blood was also collected in heparinised tubes, centrifuged at 14000 rpm at room temperature for 4 mM to provide plasma. Phosphate buffer pH 7 was added to each tissue to produce concentrations of 1 mg/mL for brain and spleen and 8 mg/mL for muscle. The tissues were homogenised in cold phosphate buffer pH 7 containing 0.1% Triton and centrifuged at 14000 rpm. Aliquots of plasma and the supernatant of all tissues were incubated with AcTh or BuTh and DTNB in phosphate buffer pH 7 and the rate of development of the yellow colour was measured as described above. Enzyme activity was measured for each time and drug concentration and percent inhibition of the AChE or BuChE activity was calculated by comparison with that of control mice injected with saline. Results are represented as p moles acetylthiocholine or butythiocholine hydrolysed/min/gm tissue.
# [3] = test system: TNF-α, BV2 mouse microglial cells; assay: TNF-α reduction in LPS-stimulated BV2 microglia; type: cell-based
# Procedure: The BV2 mouse microglial cells were created by infecting primary mouse microglia with v-raf/v-myc oncogen-carrying retrovirus and donated by Dr. Sigal Fleisher—Berkovich (Ben-Gurion University of the Negev). The cells were cultured in RPMI 1640 containing 0.4 mM L-Glutamine, 10% FCS, 100 units/ml penicillin, 100 μg/ml streptomycin and maintained in a humidified incubator at 37° C. with 5% CO2. For measurement of the effect of compounds on the release of NO the cells were seeded in a density of 80,000 cells/ml and confluence of about 60%, and incubated with test compounds (in the absence of FCS) for […] All the medium was removed and fresh medium containing FCS and LPS (10 μg/ml) added and the cells maintained at 37° C. for 24 h. The release of NO into the medium was determined by measurement of nitrite levels using Griess reagent reaction. For measurement of protein levels of cytokines cells were seeded in a density of 80,000 and incubated with test compounds (in the absence of FCS) and then with LPS as described above. The medium was centrifuged and supernatants collected after 6 h for TNF-α (Biolegend) and after 20 h for IL-6 (Biolegend).
# [4] = Table 2, 120 min incubation, read-out: IC50 AChE 120′
# [5] = read-out: IC50 BuChE 120 min, Table 3, 120 min incubation
# [6] = Mus musculus, RAW264.7, 24 h, read-out: Reduction in NO levels, RAW Macrophages % peak reduction
# [7] = concentration range; None = no reduction up till 100 nM
# [8] = Table 3, 120 min incubation, read-out: IC50 AChE 120 min
molecule,measurement,setting,value
"COC(=O)CCc1c[nH]c2cc(OC(=O)N(C)c3ccc(OC)cc3)ccc12 [compound 683, Methyl 3-(6-((4-methoxyphenyl)(methyl)carbamoyloxy)-1H-indol-3-yl)propanoate]",IC50,AChE; [4],> 800 µM
"CCN(C)C(=O)Oc1ccc2c(c1)C(CCC(=O)OC)CN2 (stereo not shown) [AN-669, 3-(2-(Methoxycarbonyl)ethyl) indolin-5-yl ethylmethylcarbamate]",IC50,AChE; [4],660 µM
"CCN(C)C(=O)Oc1ccc2c(c1)NCC2 [AN-885, Indolin-6-yl ethyl(methyl)carbamate hydrochloride]",IC50,[1],1.15 ± 0.01 µM
same,IC50,BuChE; [5],58.7 µM
"CCN(C)C(=O)Oc1cccc2c1C(CCC(=O)OC)CN2C (stereo not shown) [AN-698, 3-(2-(Methoxycarbonyl)ethyl)-1-methylindolin-4-yl ethylmethylcarbamate hydrochloride]",IC50,[1],3.13 ± 0.36 µM
same,IC50,BuChE; [5],6.8 µM
"CCN(C)C(=O)Oc1ccc2c(CCCN)c[nH]c2c1.Cl [AN-911, 3-(6-((Ethyl(methyl)carbamoyl)oxy)-1H-indol-3-yl)propan-1-aminium chloride]",Emax,"NO, RAW 264.7 cells; [6]",66.6 ± 1.9%
same,"Reduction in NO levels by at >20%, RAW Macrophages range","NO, RAW 264.7 cells; [7]",10^−2-100 nM
same,IC50,AChE; read-out: IC50 AChE 120 min,24 µM
same,IC50,BuChE; [5],0.1 µM
"CCN(C)C(=O)Oc1cccc2c1C(CCC(N)=O)CN2 (stereo not shown) [AN-851, 3-(3-Amino-3-oxopropyl)indolin-4-yl ethyl(methyl)carbamate hydrochloride]",IC50,[1],2.39 ± 0.4 µM
same,IC50,BuChE; [5],8.5 µM
"COc1ccc(N(C)C(=O)Oc2cccc3c2C(CCC(=O)O)CN3)cc1 (stereo not shown) [AN-821, hydrochloride]",IC50,[1],4.33 ± 0.06 µM
same,IC50,BuChE; [5],417 µM
"CCN(C)C(=O)Oc1cccc2c1c(CCC(=O)OC)cn2C [AN-629, Methyl 3-(4-((ethyl(methyl)carbamoyl)oxy)-1-methyl-1H-indol-3-yl) propanoate]",IC50,AChE; [4],180 µM
"CCN(C)C(=O)Oc1ccc2c(CCC(=O)OCOC(=O)C(C)(C)C)c[nH]c2c1 [AN-860, (3-(6-(Ethyl(methyl)carbamoyloxy)-1H-indol-3-yl)propanotloxy)methyl pivalate]","ChE inhibition in plasma, muscle, and spleen",[2],inhibited ChE
Ethyl 3-(5- ((ethyl(methyl)carbamoyl) oxy)-1H- benzo[d]imidazol-1- yl)propanoate hydrochloride Ethyl 3-(6- ((ethyl(methyl)carbamoyl) oxy)-1H- benzo[d]imidazol-1- yl)propanoate hydrochloride [AN-1257],"Reduction in NO levels, RAW Macrophages % peak reduction","NO, RAW 264.7 cells",34.5 ± 1.2%
same,"Reduction in NO levels by at >20%, RAW Macrophages range","NO, RAW 264.7 cells; [7]",10^−2-1000 nM
same,IC50,"BuChE; Table 3, 120 min incubation, read-out: IC50 BuChE 120 min",0.11 µM
"COc1ccc(N(C)C(=O)Oc2cccc3c2C(CCC(=O)O)CN3C)cc1 (stereo not shown) [AN-822, hydrochloride]",IC50,[1],10.2 ± 4.1 µM
same,IC50,BuChE; [5],> 600 µM
"COc1ccc(N(C)C(=O)Oc2cccc3c2CCN3)cc1 [AN-857, Indolin-4-yl 4-methoxyphenyl(methyl)carbamate hydrochloride]",IC50,BuChE; [5],3.6 µM
"CCN(C)C(=O)Oc1cccc2c1NCC2CCC(=O)OC (stereo not shown) [AN-852, Methyl 3-(7-(ethyl(methyl)carbamoyloxy)indolin-3-yl)propanoate hydrochloride]",IC50,"BuChE; read-out: BuChE IC50, most potent BuChE inhibitors",0.08 µM
"CN(C)C(=O)Oc1cccc2ccn(C)c12 [AN-621, Dimethyl-carbamic acid 1-methyl-1H-indol-7-yl ester]",IC50,AChE,0.33 µM
same,IC50,AChE; [4],0.3 µM
"CCN(CC)C(=O)Oc1ccc2c(ccn2C)c1 [AN-622, Diethyl-carbamic acid 1-methyl-1H indol-5-yl ester]",IC50,AChE; read-out: IC50 AChE 120′,> 500 µM
"CN(C)C(=O)Oc1cccc2c1CCN2 [AN-856, Indolin-4-yl dimethylcarbamate hydrochloride]",IC50,[1],0.77 ± 0.03 µM
same,IC50,BuChE; [5],1.3 µM
"CCCCN(C)C(=O)Oc1ccc2c(CCC(=O)OC)c[nH]c2c1 [compound 676, 3-(2-(Methoxycarbonyl)ethyl)-1H-indol-6-yl butylmethylcarbamate]",IC50,AChE; [4],33 µM
"CCN(C)C(=O)Oc1cccc2c1C(CCC(=O)O)CN2C (stereo not shown) [AN-699, 3-(4-((Ethyl(methyl)carbamoyl)oxy)-1-methylindolin-3-yl)propanoic acid hydrochloride]",IC50,[1],1.64 ± 0.06 µM
same,IC50,BuChE; [5],9.7 µM
"[2H]c1cc2c(cc1O)N(C)CC2CCC(=O)O (stereo not shown) [AN-849, Methyl 3-(5-deuteriu-6-hydroxy-1-methylindolin-3-yl) propanoic acid hydrochloride]",IC50,[1],0.84 ± 0.05 µM
"CCN(C)C(=O)Oc1cccc2[nH]cc(CCN(C)C)c12 [AN-1252, 3-(2-(Dimethylamino)ethyl)-1H-indol-4-yl ethyl(methyl)carbamate hydrochloride]",Emax,"NO, RAW 264.7 cells; Mus musculus, RAW264.7, 24 h; read-out: Reduction in NO levels, RAW Macrophages % peak reduction",36.4 ± 1.8%
same,IC50,BuChE; read-out: IC50 BuChE 120 min,0.11 µM
"CCN(CC)C(=O)Oc1ccc2c(c1)CCN2C [AN-625, Diethyl-carbamic acid 1-methyl-2,3-dihydro-1H indol-5-yl ester]",IC50,AChE; read-out: IC50 AChE 120′,50 µM
"CCCCN(C)C(=O)Oc1cccc2c1C(CCC(=O)OC)CN2C (stereo not shown) [AN-667, 3-(2-(Methoxycarbonyl)ethyl)-1-methylindolin-4-yl butylmethylcarbamate hydrochloride]",IC50,[1],6.84 ± 0.05 µM
same,IC50,BuChE; [5],197 µM
"CN(C)C(=O)Oc1cccc2c1CCN2C [AN-619, Dimethyl-carbamic acid 1-methyl-2,3-dihydro-1H-indol-4-yl ester]",IC50,AChE; [4],3.5 µM
"COC(=O)CCC1CN(C)c2cccc(OC(=O)N(C)c3ccc(OC)cc3)c21 (stereo not shown) [AN-820, 3-(2-(Methoxycarbonyl)ethyl)-1-methylindolin-4-yl 4-methoxyphenylmethyl carbamate hydrochloride]",IC50,AChE; [8],246 µM
same,IC50,[1],15.3 ± 0.01 µM
same,IC50,BuChE; [5],> 600 µM
"CCOC(=O)CCC1CNc2cccc(OC(=O)N(C)CC)c21.O=C(O)CC(O)(CC(=O)O)C(=O)O (stereo not shown) [AN-871, Ethyl 3-(4-(ethyl(methyl)carbamoyloxy)indolinium citrate]",IC50,AChE; [8],40.2 µM
same,IC50,BuChE; [5],0.56 µM
"Oc1cccc2c1CCN2 [AN-855, Indolin-4-ol hydrochloride]","Reduction in TNF-α levels, BV2 Microglia % peak reduction",[3],38.2 ± 3.2%
same,"Reduction in TNF-α levels, BV2 Microglia range","[3]; concentration range, None = no reduction up till 100 nM",10^−1-100 nM
CCN(C)C(=O)Oc1cccc2[nH]cc(CCC(N)=O)c12,melting point,,64 to 66 °C
"CCN(C)C(=O)Oc1cccc2[nH]cc(CCCN)c12 [AN-910, 3-(4-((Ethyl(methyl)carbamoyl)oxy)-1H-indol-3-yl)propan-1-aminium chloride]",Emax,"NO, RAW 264.7 cells; [6]",29.3 ± 1.2%
same,IC50,BuChE; [5],0.23 µM
O=C(O)CCc1c[nH]c2cc(O)ccc12,melting point,,197 to 200 °C
CCN(C)C(=O)Oc1ccc2c(C=O)c[nH]c2c1,melting point,,170 to 175 °C
COC(=O)/C=C/c1c[nH]c2cc(O)ccc12,melting point,,195 to 200 °C
CCN(C)C(=O)Oc1cccc2[nH]ccc12,melting point,,113 to 115 °C
